From patent US20090074716A1, “METHOD FOR TREATING INFLUENZA VIRUS INFECTION” (priority 2006, published 2009)
Entries after “also recorded” stand apart in the source; their conditions may differ. Where a SMILES comes first, the peptide text is derived from it. The star is where a group is joined. Cbz = O=C(OCc1ccccc1)*

How the values were obtained:
[1] = system: avian influenza A virus A/FPV/Bratislava/79; parameters: species or system C57B1/6 mice; conditions: mouse, in vivo
[2] = system: avian influenza A virus A/FPV/Bratislava/79; assay type: cell-based, human lung epithelium cell line A549
TRAIL and FasL/CD95L = assay type: cell-based, human
[3] = after intravenous application; cited from earlier work
[4] = system: avian influenza virus A/FPV/Bratislava/79 (H7N7); assay type: cell-based, human A549 lung epithelium carcinoma cells
IκBα [5] = assay: TNFα-induced IκBα degradation (NF-κB activation), Western blot, A549 cells; assay type: cell-based, human; conditions: 1 h pre-incubation, 15 min TNFα
IκBα [6] = assay: TNFα-induced IκBα degradation (NF-κB activation), Western blot, HEK293 cells; assay type: cell-based; conditions: 1 h pre-incubation, 15 min TNFα
26S proteasome = conditions: cited from earlier work

CC(C)C[C@@H](C=O)NC(=O)[C@H](CC(C)C)NC(=O)[C@H](CC(C)C)NC(=O)OCc1ccccc1 [MG132, N-carbobenzoxy-L-leucinyl-L-leucinyl-L-leucinal] (Cbz-Leu-Leu-Leu-aldehyde)
survival rate of infected mice versus untreated controls [1]: significantly increased
influenza virus replication [2]: blocks
reduction of the virus titre [2]: up to 10 times
virus-induced expression of FasL (TRAIL and FasL/CD95L): clearly reduced; also recorded: blocks
virus-induced expression of TRAIL (TRAIL and FasL/CD95L): clearly reduced; also recorded: blocks

CC(C)C[C@H](NC(=O)[C@H](Cc1ccccc1)NC(=O)c1cnccn1)B(O)O [PS341, pyranosyl-phenyl-leucinyl-boric acid]
biological availability [3]: biologically available
reduction of the virus titre [4]: over 2 logarithmic levels
prevention of TNFα-induced IκBα-degradation (IκBα [5]; 100 nM): not in a position to prevent
prevention of TNFα-induced IκBα-degradation (IκBα [6]; 100 nM): not in a position to prevent

CC(C)c1nc(CN(C)C(=O)N[C@H](C(=O)N[C@@H](Cc2ccccc2)C[C@H](O)[C@H](Cc2ccccc2)NC(=O)OCc2cncs2)C(C)C)cs1 [Ritonavir]
concentration with unspecific effect on the proteasome (26S proteasome): approx. 10 micrograms

CC(=O)N[C@@H](CSC(=O)[C@]1([C@@H](O)C(C)C)NC(=O)[C@H](C)[C@@H]1O)C(=O)O [lactacysteine]
reduction of the virus titre [4]: reduction
blocking of TNFα-induced IκBα-degradation (IκBα [5]; 1 μM): not effective enough to block
blocking of TNFα-induced IκBα-degradation (IκBα [6]; 1 μM): not effective enough to block
